# Source: US9247759B2, “Identification of human T2R receptors that respond to bitter compounds that elicit the bitter taste in compositions, and the use thereof in assays to identify compounds that inhibit (block) bitter taste in compositions and use thereof” (SENOMYX, INC., priority 2007, dated 2016)
# Target: hT2R8 (Homo sapiens (Human), UniProt Q9NYW2)
# Assay: hT2R8 antagonist high-throughput FLIPR assay, stable cell line with G16g44, agonist andrographolide
# Assay type: cell-based
# Settings: table after Example 12-37; read-out: hT2R8 IC50
# How it was run: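 HEK293 cells stably co-expressing hT2R8 and chimeric G16g44, read on FLIPR. Test compounds added together with andrographolide (200 μM), which drives the receptor to 70–80% of maximal activity; antagonism seen as reduced agonist response.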
# Sequence of hT2R8 (Q9NYW2 whole entry): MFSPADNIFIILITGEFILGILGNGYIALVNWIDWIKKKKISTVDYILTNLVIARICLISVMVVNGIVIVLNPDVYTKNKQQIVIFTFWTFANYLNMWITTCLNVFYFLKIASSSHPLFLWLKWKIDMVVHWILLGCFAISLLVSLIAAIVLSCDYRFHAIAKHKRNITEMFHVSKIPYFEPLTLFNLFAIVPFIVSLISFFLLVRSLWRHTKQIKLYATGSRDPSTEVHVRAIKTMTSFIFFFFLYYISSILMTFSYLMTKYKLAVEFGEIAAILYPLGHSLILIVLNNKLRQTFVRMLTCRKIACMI
row,IC50 [nM],SMILES
1,150,"Cc1noc(C)c1Cn1cc(N2C(=O)N(CCc3cccc(F)c3)C(C)(C)C2=O)cn1 [Example 12-50, 3-(1-((3,5-dimethylisoxazol-4-yl)methyl)-1H-pyrazol-4-yl)-1-(3-fluorophenethyl)-5,5-dimethylimidazolidine-2,4-dione]"
2,190,"COc1ccc(CN2C(=O)N(c3cnn(Cc4c(C)noc4C)c3)C(=O)C2(C)C)nc1 [Example 12-51, 3-(1-((3,5-dimethylisoxazol-4-yl)methyl)-1H-pyrazol-4-yl)-1-((5-methoxypyridin-2-yl)methyl)-5,5-dimethylimidazolidine-2,4-dione]"
3,190,"Cc1noc(C)c1Cn1cc(N2C(=O)N(Cc3ccncc3)C(C)(C)C2=O)cn1 [Example 12-52, 3-(1-((3,5-dimethylisoxazol-4-yl)methyl)-1H-pyrazol-4-yl)-5,5-dimethyl-1-(pyridin-4-ylmethyl)imidazolidine-2,4-dione]"
4,200,"Cc1noc(C)c1Cn1cc(N2C(=O)N(CCc3ccccc3F)C(C)(C)C2=O)cn1 [Example 12-53, 3-(1-((3,5-dimethylisoxazol-4-yl)methyl)-1H-pyrazol-4-yl)-1-(2-fluorophenethyl)-5,5-dimethylimidazolidine-2,4-dione]"
5,200,"COc1ccc(OC)c(CN2C(=O)N(c3cnn(Cc4c(C)noc4C)c3)C(=O)C2(C)C)c1 [Example 12-54, 1-(2,5-dimethoxybenzyl)-3-(1-((3,5-dimethylisoxazol-4-yl)methyl)-1H-pyrazol-4-yl)-5,5-dimethylimidazolidine-2,4-dione]"
6,220,COC(=O)c1cccc(CN2C(=O)N(c3cnn(Cc4c(C)noc4C)c3)C(=O)C2(C)C)c1 [Example 12-55]
7,230,"Cc1noc(C)c1Cn1cc(N2C(=O)N(CCc3ccccc3)C(C)(C)C2=O)cn1 [Example 12-56, 3-(1-((3,5-dimethylisoxazol-4-yl)methyl)-1H-pyrazol-4-yl)-5,5-dimethyl-1-phenethylimidazolidine-2,4-dione]"
8,230,"COC(=O)c1ccc(CN2C(=O)N(c3cnn(Cc4c(C)noc4C)c3)C(=O)C2(C)C)cc1 [Example 12-57, methyl 4-((3-(1-((3,5-dimethylisoxazol-4-yl)methyl)-1H-pyrazol-4-yl)-5,5-dimethyl-2,4-dioxoimidazolidin-1-yl)methyl)benzoate]"
9,240,"COc1ccccc1CCN1C(=O)N(c2cnn(Cc3c(C)noc3C)c2)C(=O)C1(C)C [Example 12-58, 3-(1-((3,5-dimethylisoxazol-4-yl)methyl)-1H-pyrazol-4-yl)-1-(2-methoxyphenethyl)-5,5-dimethylimidazolidine-2,4-dione]"
10,240,"Cc1noc(C)c1Cn1cc(N2C(=O)N(Cc3cc(F)ccc3F)C(C)(C)C2=O)cn1 [Example 12-59, 1-(2,5-difluorobenzyl)-3-(1-((3,5-dimethylisoxazol-4-yl)methyl)-1H-pyrazol-4-yl)-5,5-dimethylimidazolidine-2,4-dione]"
11,250,"COc1cccc(CCN2C(=O)N(c3cnn(Cc4c(C)noc4C)c3)C(=O)C2(C)C)c1 [Example 12-60, 3-(1-((3,5-dimethylisoxazol-4-yl)methyl)-1H-pyrazol-4-yl)-1-(3-methoxyphenethyl)-5,5-dimethylimidazolidine-2,4-dione]"
12,260,"Cc1noc(C)c1Cn1cc(N2C(=O)N(Cc3ccccn3)C(C)(C)C2=O)cn1 [Example 12-61, 3-(1-((3,5-dimethylisoxazol-4-yl)methyl)-1H-pyrazol-4-yl)-5,5-dimethyl-1-(pyridin-2-ylmethyl)imidazolidine-2,4-dione]"
13,270,"Cc1noc(C)c1Cn1cc(N2C(=O)N(Cc3ccc4c(c3)OCCO4)C(C)(C)C2=O)cn1 [Example 12-62, 1-((2,3-dihydrobenzo[b][1,4]dioxin-6-yl)methyl)-3-(1-((3,5-dimethylisoxazol-4-yl)methyl)-1H-pyrazol-4-yl)-5,5-dimethylimidazolidine-2,4-dione]"
14,280,"Cc1noc(C)c1Cn1cc(N2C(=O)N(Cc3cccc(OCCO)c3)C(C)(C)C2=O)cn1 [Example 12-63, 3-(1-((3,5-dimethylisoxazol-4-yl)methyl)-1H-pyrazol-4-yl)-1-(3-(2-hydroxyethoxy)benzyl)-5,5-dimethylimidazolidine-2,4-dione]"
15,300,"COc1cccc(CN2C(=O)N(c3cnn(Cc4c(C)noc4C)c3)C(=O)C2(C)C)c1OC [Example 12-64, 1-(2,3-dimethoxybenzyl)-3-(1-((3,5-dimethylisoxazol-4-yl)methyl)-1H-pyrazol-4-yl)-5,5-dimethylimidazolidine-2,4-dione]"
16,310,"COc1cccc(F)c1CN1C(=O)N(c2cnn(Cc3c(C)noc3C)c2)C(=O)C1(C)C [Example 12-65, 3-(1-((3,5-dimethylisoxazol-4-yl)methyl)-1H-pyrazol-4-yl)-1-(2-fluoro-6-methoxybenzyl)-5,5-dimethylimidazolidine-2,4-dione]"

row,IC50 [nM],SMILES
1,310,"Cc1noc(C)c1Cn1cc(N2C(=O)N(Cc3cccc(F)c3F)C(C)(C)C2=O)cn1 [Example 12-66, 1-(2,3-difluorobenzyl)-3-(1-((3,5-dimethylisoxazol-4-yl)methyl)-1H-pyrazol-4-yl)-5,5-dimethylimidazolidine-2,4-dione]"
2,320,"Cc1noc(C)c1Cn1cc(N2C(=O)N(Cc3ccccc3)C(C)(C)C2=O)cn1 [Example 12-67, 1-benzyl-3-(1-((3,5-dimethylisoxazol-4-yl)methyl)-1H-pyrazol-4-yl)-5,5-dimethylimidazolidine-2,4-dione]"
3,330,"Cc1noc(C)c1Cn1cc(N2C(=O)N(CCc3ccc(F)cc3)C(C)(C)C2=O)cn1 [Example 12-69, 3-(1-((3,5-dimethylisoxazol-4-yl)methyl)-1H-pyrazol-4-yl)-1-(4-fluorophenethyl)-5,5-dimethylimidazolidine-2,4-dione]"
4,400,"Cc1noc(C)c1Cn1cc(N2C(=O)N(CCc3cc(F)cc(F)c3)C(C)(C)C2=O)cn1 [Example 12-70, 1-(3,5-difluorophenethyl)-3-(1-((3,5-dimethylisoxazol-4-yl)methyl)-1H-pyrazol-4-yl)-5,5-dimethylimidazolidine-2,4-dione]"
5,420,"Cc1noc(C)c1Cn1cc(N2C(=O)N(Cc3ccn(C)n3)C(C)(C)C2=O)cn1 [Example 12-71, 3-(1-((3,5-dimethylisoxazol-4-yl)methyl)-1H-pyrazol-4-yl)-5,5-dimethyl-1-((1-methyl-1H-pyrazol-3-yl)methyl)imidazolidine-2,4-dione]"
6,440,"Cc1noc(C)c1Cn1cc(N2C(=O)N(Cc3cccc(O)n3)C(C)(C)C2=O)cn1 [Example 12-72, 3-(1-((3,5-dimethylisoxazol-4-yl)methyl)-1H-pyrazol-4-yl)-1-((6-hydroxypyridin-2-yl)methyl)-5,5-dimethylimidazolidine-2,4-dione]"
7,460,"Cc1noc(C)c1Cn1cc(N2C(=O)N(Cc3cccc(C(=O)O)c3)C(C)(C)C2=O)cn1 [Example 12-73, 3-((3-(1-((3,5-dimethylisoxazol-4-yl)methyl)-1H-pyrazol-4-yl)-5,5-dimethyl-2,4-dioxoimidazolidin-1-yl)methyl)benzoic acid]"
8,530,"Cc1noc(C)c1Cn1cc(N2C(=O)N(Cc3ccc(F)cc3F)C(C)(C)C2=O)cn1 [Example 12-74, 1-(2,4-difluorobenzyl)-3-(1-((3,5-dimethylisoxazol-4-yl)methyl)-1H-pyrazol-4-yl)-5,5-dimethylimidazolidine-2,4-dione]"
9,530,"COC(=O)COc1cccc(CN2C(=O)N(c3cnn(Cc4c(C)noc4C)c3)C(=O)C2(C)C)c1 [Example 12-75, methyl 2-(3-((3-(1-((3,5-dimethylisoxazol-4-yl)methyl)-1H-pyrazol-4-yl)-5,5-dimethyl-2,4-dioxoimidazolidin-1-yl)methyl)phenoxy)acetate]"
10,540,"COc1ccc(CN2C(=O)N(c3cnn(Cc4c(C)noc4C)c3)C(=O)C2(C)C)cc1C [Example 12-76, 3-(1-((3,5-dimethylisoxazol-4-yl)methyl)-1H-pyrazol-4-yl)-1-(4-methoxy-3-methylbenzyl)-5,5-dimethylimidazolidine-2,4-dione]"
11,560,"Cc1noc(C)c1Cn1cc(N2C(=O)N(CCO)C(C)(C)C2=O)cn1 [Example 12-77, 3-(1-((3,5-dimethylisoxazol-4-yl)methyl)-1H-pyrazol-4-yl)-1-(2-hydroxyethyl)-5,5-dimethylimidazolidine-2,4-dione]"
12,580,"Cc1noc(C)c1Cn1cc(N2C(=O)N(CCCc3ccccc3)C(C)(C)C2=O)cn1 [Example 12-78, 3-(1-((3,5-dimethylisoxazol-4-yl)methyl)-1H-pyrazol-4-yl)-5,5-dimethyl-1-(3-phenylpropyl)imidazolidine-2,4-dione]"
13,50,"Cc1noc(C)c1Cn1cc(N2C(=O)N(Cc3ccc(C#N)cc3)C(C)(C)C2=O)cn1 [Example 12-79, 4-((3-(1-((3,5-dimethylisoxazol-4-yl)methyl)-1H-pyrazol-4-yl)-5,5-dimethyl-2,4-dioxoimidazolidin-1-yl)methyl)benzonitrile]"
14,710,"COCCOc1cccc(CN2C(=O)N(c3cnn(Cc4c(C)noc4C)c3)C(=O)C2(C)C)c1 [Example 12-80, 3-(1-((3,5-dimethylisoxazol-4-yl)methyl)-1H-pyrazol-4-yl)-1-(3-(2-methoxyethoxy)benzyl)-5,5-dimethylimidazolidine-2,4-dione]"
15,740,"Cc1ccc(CN2C(=O)N(c3cnn(Cc4c(C)noc4C)c3)C(=O)C2(C)C)cc1 [Example 12-81, 3-(1-((3,5-dimethylisoxazol-4-yl)methyl)-1H-pyrazol-4-yl)-5,5-dimethyl-1-(4-methylbenzyl)imidazolidine-2,4-dione]"
16,810,"Cc1cccc(CN2C(=O)N(c3cnn(Cc4c(C)noc4C)c3)C(=O)C2(C)C)c1F [Example 12-82, 3-(1-((3,5-dimethylisoxazol-4-yl)methyl)-1H-pyrazol-4-yl)-1-(2-fluoro-3-methylbenzyl)-5,5-dimethylimidazolidine-2,4-dione]"
